The values that follow come from patent US8512964B2, “Targets for treatment of hypercholesterolemia” (The Regents of the University of California, priority 2008, dated 2013).

In assay [1] the test system is LDLR. Briefly: Immunoblot of LDLR protein in immortalized Lxrαβ(−/−) MEFs stably expressing LXRα or vector control. Format: cell-based, mouse. The settings on record: Lxrαβ(−/−) MEFs with LXRα or vector control, sterol depletion medium, FIG. 1E. Here is the method:
The cell lines HEK293T, HepG2, and SV589 were obtained from ATCC. HEK293T were cultured in Optimem containing 2% FBS. HepG2 and SV589 were cultured in DMEM supplemented with 10% FBS. immortalized Lxrαβ^(−/−) mouse embryonic fibroblasts (MEFs) were obtained by immortalizing E13.5 MEFs with a SV40 Large-T antigen retrovirus. To reconstitute mLxrα we transfected Phenix cells with pBabehygro or pBabehygro-mLxra. The resulting supernatant containing the corresponding retroviral particles was used to infect immortalized MEFs. Cells were selected in 800 μg/mL Hygromycin and surviving cells were used. HepG2-LDLR-GFP cells were generated by transfecting HepG2 cells with pEGFP-N1-LDLR and selecting cells with G418 (800 μg/mL).
Primary hepatocytes were isolated and maintained as previously reported (Pei et al. (2006) Nat Med 12: 1048). HEK293T cells were transfected using lipofectamine2000 (invitrogen). […] Under these conditions more than 90% of the cells were transduced as assessed by GFP immunofluorescence. […]
(§1) Total cell or tissue lysates were prepared in RIPA buffer (150 mM NaCl, 1% NP-40, 0.1% Sodium Deoxycholate, 0.1% SDS, 100 mM Tris-HCl, pH 7.4) supplemented with protease inhibitors (Roche Molecular Biochemicals). […] Protein concentration of the cleared lysates was determined using the Bradford assay (Biorad) with BSA as reference. […]
(Immunoblotting shows a protein as a band on a membrane.)

A further assay deals with HepG2 cells. The assay is described as follows: BODIPY-LDL binding and uptake assay in HepG2 cells. The format is cell-based. As to conditions: 1 μM ligand, FIG. 1A. On the procedure: HepG2 cells were plated at density of 40,000 cells/well. On the following day the cells were pre-treated for 8 hrs with DMSO, 1 μM GW3965, or 1 μM T0901317 in DMEM supplemented with 10% FBS. MEFs (DKO-mLxra) were plated similarly and infected on the following day with the indicated adenovirus (MOI 300) for 18 hrs. Subsequently, cells were washed twice with PBS and incubated for an additional 16 hrs in sterol deficient medium to induce expression of the LDLR. In experiments with HepG2 cells the sterol deficient medium further contained the LXR synthetic ligands indicated above. Uptake was initiated by incubating cells in 200 μl of serum deficient medium containing 5 μg/mL of BODIPY-LDL. For measuring binding of BODIPY-LDL to cells, plates were placed on ice prior to processing. Uptake of BODIPY-LDL was measured after a 30 minute incubation period at 37° C. At that point cells were washed 2× with PBS containing 0.2% BSA and lysed in 100 μl RIPA buffer supplemented with protease inhibitors. Lysates were collected and cleared by centrifugation and 30 μl of cleared lysate was transferred into a 384 well plate and measured on a Typhoon apparatus (Amersham) with filters set for BODIPY. The protein concentration of the cleared lysates was determined and results are presented as relative fluorescence normalized for protein content.

Another assay concerns Mylip. The assay is described as follows: Mylip expression in vivo after gavage of mice (realtime PCR). As to conditions: mice gavaged 20 mg/kg twice daily for three days, FIG. 2C. Further details: species or system mouse. On the procedure: Total RNA was isolated from cells and mouse tissues using Trizol (Invitrogen). One microgram of total RNA was reverse transcribed with random hexamers using iScript reverse transcription reagents kit (Biorad). Sybergreen (Diagenode) real-time quantitative PCR assays were performed using an Applied Biosystems 7900HT sequence detector.

A further assay concerns Mylip LXRE. Briefly: Mylip promoter (LXRE) reporter assay in HEK293 cells transfected with LXR and RXR. The format is cell-based, mouse. As to conditions: activation by LXRa and GW3965, functional LXRE, FIG. 6D. On the procedure: A 10 Kb promotor region upstream of the mMylip transcription initiation site was analyzed for the presence of LXR binding elements. A consensus DR4 site was identified 2454 upstream of the transcription initiation site. Olignoucleotides encompassing this element were designed, annealed and tested for binding to LXR/RXR heterodimers in a standard EMSA assay. A 2.5 kB promotor fragment upstream of the transcription initiation site containing the identified LXRE was amplified by PCR from BAC clone RP23-17N24 using mMylip-prom-FWD […] (SEQ ID NO:20) or mMylip-prom-ΔFWD […] (SEQ ID NO:21) with the common antisense primer mMylip-prom-REV […] (SEQ ID NO:22). Amplified fragments were cloned as SacI/XhoI fragments into pGL3 basic (Promega). Promotor analysis was done as previously described (Joseph et al. (2002) J Biol Chem 277: 11019).

The subject of assay [2] is LDLR. Briefly: LDLR ubiquitination in HEK293 cells co-transfected with LDLR, Mylip and HA-Ubiquitin. The settings on record: 25 μM for 6 h, FIG. 3G. The format is cell-based. On the procedure:
Primary hepatocytes were isolated and maintained as previously reported (Pei et al. (2006) Nat Med 12: 1048). HEK293T cells were transfected using lipofectamine2000 (invitrogen). Typically, 0.8×10^6 cells were seeded in a 60 mm well and transfected the following day with 2 μg DNA. In experiments testing the ability of Mylip to degrade other potential protein targets a ratio of 3:1 (Mylip:target) was used. To infect MEFs and SV589 with adenovirus cells were seeded (0.2×10^6 cells/60 mm well) and infected the following day at an MOI of 300. HepG2 cells were infected at an MOI of 80. Primary hepatocytes were infected 4 hrs after plating at an MOI of 20. Infections were allowed to proceed for 18 hrs after which culture medium was replaced. Under these conditions more than 90% of the cells were transduced as assessed by GFP immunofluorescence. Where indicated, cells were subsequently sterol starved by incubating cells in DMEM supplemented with 10% LPDS, 5 μM Simvastatin, and 100 μM Mevalonic acid for an additional 18 hrs (sterol deficient medium).
as §1

Residues, ends and D or L forms follow the SMILES beside them. *: point of attachment. Cbz = O=C(OCc1ccccc1)*

For `CC(C)CC[C@@H](O)[C@@H](C)[C@H]1CC[C@H]2[C@@H]3CC=C4C[C@@H](O)CC[C@]4(C)[C@H]3CC[C@]12C` [22(R)-hydroxycholesterol], in the assay with LDLR [1], the LDLR protein entry is recorded as “decreased LDLR protein in the absence or presence of LXRs”.
For `O=C(O)Cc1cccc(OCCCN(Cc2cccc(C(F)(F)F)c2Cl)CC(c2ccccc2)c2ccccc2)c1` [GW3965], the “binding and uptake of bodipy labeled-LDL” value in the assay with HepG2 cells is on record as “decreased”. For the same molecule, the LDLR protein result in the assay with LDLR [1] is reported as “decreased LDLR only in cells expressing LXRα”. For the same molecule, the “Mylip expression in vivo” value in the assay with Mylip is listed as “induced”. The “increase in reporter activity” value in the assay with Mylip LXRE is on record as roughly 4 fold.
For the molecule `CC(C)C[C@@H](C=O)NC(=O)[C@H](CC(C)C)NC(=O)[C@H](CC(C)C)NC(=O)OCc1ccccc1` [MG132] (Cbz-Leu-Leu-Leu-aldehyde), in the assay on LDLR [2], the Mylip expression result is given as “greatly stabilizing” and the “Mylip-dependent level of LDLR ubiquitination” value was “did not increase”.
Consider `O=S(=O)(c1ccccc1)N(CC(F)(F)F)c1ccc(C(O)(C(F)(F)F)C(F)(F)F)cc1` [T0901317], for which, in the assay on HepG2 cells, the “binding and uptake of bodipy labeled-LDL” value was “decreased”.
